Converted amounts (≈) assume the structure as drawn.
Tested on: Mycobacterium tuberculosis H37Rv strain
Experiment: Alamar blue (MABA) test, MIC on Mycobacterium tuberculosis H37Rv
Format: cell-based
Conditions: H37RV, read-out: fluorimetric MIC (minimum inhibitory concentration) with respect to the growth of Mycobacterium tuberculosis

SMILES | MIC
O=C(NCCc1cccc(Cl)c1)c1nc2cc(C(F)(F)F)cc([N+](=O)[O-])c2s1 [Compound 16, N-[2-(3-chlorophenyl)-ethyl]-7-nitro-5-(trifluoromethyl)-1,3-benzothiazole-2-carboxamide] | < 0.5 µM
O=C(NCCc1ccccc1O)c1nc2cc(C(F)(F)F)cc([N+](=O)[O-])c2s1 [Compound 17, N-[2-(2-hydroxyphenyl)ethyl]-7-nitro-5-(trifluoromethyl)-1,3-benzothiazole-2-carboxamide] | < 0.5 µM
O=C(NCCc1ccc(O)cc1)c1nc2cc(C(F)(F)F)cc([N+](=O)[O-])c2s1 [Compound 18, N-[2-(4-hydroxyphenyl)ethyl]-7-nitro-5-(trifluoromethyl)-1,3-benzothiazole-2-carboxamide] | < 0.5 µM
O=C(NCCc1nc2ccccc2o1)c1nc2cc(C(F)(F)F)cc([N+](=O)[O-])c2s1 [Compound 38, N-[2-(1,3-benzoxazol-2-yl)ethyl]-7-nitro-5-(trifluoromethyl)-1,3-benzothiazole-2-carboxamide] | < 0.5 µM

Same assay, conditions: in vitro, Alamar blue (MABA), H37Rv strain, fluorescence reading, read-out: fluorimetric MIC (minimum inhibitory concentration) with respect to the growth of Mycobacterium tuberculosis

SMILES | MIC
O=C(NCCC1CCOCC1)c1nc2cc(C(F)(F)F)cc([N+](=O)[O-])c2s1 [Compound 2, 7-nitro-N-[2-(tetrahydro-2H-pyran-4-yl)ethyl]-5-(trifluoromethyl)-1,3-benzothiazole-2-carboxamide] | < 0.5 µM
COc1ccc(CCNC(=O)c2nc3cc(C(F)(F)F)cc([N+](=O)[O-])c3s2)cc1 [Compound 7, N-[2-(4-methoxyphenyl)ethyl]-7-nitro-5-(trifluoromethyl)-1,3-benzothiazole-2-carboxamide] | < 0.5 µM
O=C(NCCN1CCc2ccccc2C1)c1nc2cc(C(F)(F)F)cc([N+](=O)[O-])c2s1 [Compound 9, N-[2-(1,2,3,4-tetrahydroisoquinolin-2(1H)-yl)ethyl]-7-nitro-5-(trifluoromethyl)-1,3-benzothiazole-2-carboxamide] | < 0.5 µM
O=C(NCCc1ccc(F)cc1)c1nc2cc(C(F)(F)F)cc([N+](=O)[O-])c2s1 [Compound 14, N-[2-(4-fluorophenyl)ethyl]-7-nitro-5-(trifluoromethyl)-1,3-benzothiazole-2-carboxamide] | < 0.5 µM
COc1ccc(CCNC(=O)c2nc3cc(C(F)(F)F)cc([N+](=O)[O-])c3s2)cc1OC [Compound 15, N-[2-(3,4-dimethoxyphenyl)ethyl]-7-nitro-5-(trifluoromethyl)-1,3-benzothiazole-2-carboxamide] | < 0.5 µM
O=C(NCCNc1ccccn1)c1nc2cc(C(F)(F)F)cc([N+](=O)[O-])c2s1 [Compound 21, 7-nitro-N-[2-(pyridin-2-ylamino)ethyl]-5-(trifluoromethyl)-1,3-benzothiazole-2-carboxamide] | < 0.5 µM
O=C(NCCN1CCSCC1)c1nc2cc(C(F)(F)F)cc([N+](=O)[O-])c2s1 [Compound 22, 7-nitro-N-[2-thiomorpholin-4-ylethyl)-5-(trifluoromethyl)-1,3-benzothiazole-2-carboxamide] | < 0.5 µM
Cc1cccnc1CCNC(=O)c1nc2cc(C(F)(F)F)cc([N+](=O)[O-])c2s1 [Compound 25, N-[2-(3-methylpyridin-2-yl)ethyl]-7-nitro-5-(trifluoromethyl)-1,3-benzothiazole-2-carboxamide] | < 0.5 µM
O=C(NCC(c1ccccc1)N1CCOCC1)c1nc2cc(C(F)(F)F)cc([N+](=O)[O-])c2s1 (stereo not drawn) [Compound 26, N-(2-morpholin-4-yl-2-phenylethyl)-7-nitro-5-(trifluoromethyl)-1,3-benzothiazole-2-carboxamide] | < 0.5 µM
CC1(C)CC(CCNC(=O)c2nc3cc(C(F)(F)F)cc([N+](=O)[O-])c3s2)(c2ccccc2)CCO1 (stereo not drawn) [Compound 27, N-[2-(2,2-dimethyl-4-phenyltetrahydro-2H-pyran-4-yl)ethyl]-7-nitro-5-(trifluoromethyl)-1,3-benzothiazole-2-carboxamide] | < 0.5 µM
Cc1nc(CCNC(=O)c2nc3cc(C(F)(F)F)cc([N+](=O)[O-])c3s2)sc1Cl [Compound 36, N-[2-(5-chloro-4-methyl-1,3-thiazol-2-yl)ethyl]-7-nitro-5-(trifluoromethyl)-1,3-benzothiazole-2-carboxamide] | < 0.5 µM
CCc1csc(CCNC(=O)c2nc3cc(C(F)(F)F)cc([N+](=O)[O-])c3s2)n1 [Compound 39, N-[2-(4-ethyl-1,3-thiazol-2-yl)ethyl]-7-nitro-5-(trifluoromethyl)-1,3-benzothiazole-2-carboxamide] | < 0.5 µM
Cc1nc(CCNC(=O)c2nc3cc(C(F)(F)F)cc([N+](=O)[O-])c3s2)sc1C [Compound 40, N-[2-(4,5-dimethyl-1,3-thiazol-2-yl)ethyl]-7-nitro-5-(trifluoromethyl)-1,3-benzothiazole-2-carboxamide] | < 0.5 µM
NNC(=O)c1ccncc1 [isoniazid, reference compound] | 0.36 µM (≈ 0.0494 µg/mL)
CO[C@H]1/C=C/O[C@@]2(C)Oc3c(C)c(O)c4c(O)c(c(/C=N/N5CCN(C)CC5)c(O)c4c3C2=O)NC(=O)/C(C)=C\C=C\[C@H](C)[C@H](O)[C@@H](C)[C@@H](O)[C@@H](C)[C@H](OC(C)=O)[C@@H]1C [rifampicin, reference compound] | 0.12 µM (≈ 0.0988 µg/mL)

Tested on: not given
Experiment: not given
Conditions: not given

SMILES | melting point
O=C(NCCc1ccc(Cl)cc1)c1nc2cc(C(F)(F)F)cc([N+](=O)[O-])c2s1 | 140 °C
O=C(NCCC1CCOCC1)c1nc2cc(C(F)(F)F)cc([N+](=O)[O-])c2s1 [Compound 2, 7-nitro-N-[2-(tetrahydro-2H-pyran-4-yl)ethyl]-5-(trifluoromethyl)-1,3-benzothiazole-2-carboxamide] | 154 °C

— patent US8993561B2, “Nitrobenzothiazole derivatives, preparation thereof and therapeutic applications thereof” (Sanofi, priority 2010, dated 2015)
